Test: Solubility in organic solvents
Assay type: physicochemical
Details: in solvents such as THF, toluene, cyclohexane and dichloromethane

Q: With `CCCCCCCCc1ccc(CCCCCCCC)c2c1-c1nc-2nc2[nH]c(nc3nc(nc4[nH]c(n1)c1ccncc41)-c1c(CCCCCCCC)ccc(CCCCCCCC)c1-3)c1c(CCCCCCCC)ccc(CCCCCCCC)c21` [1a, 1,4,8,11,15,18-(hexaoctyl)tribenzo-3,4-pyridinoporphyrazine] as the compound, how does the solubility read?
A: good solubility

Source: patent publication US6384027B1, “Phthalocyanine analogs” (QinetiQ Limited, priority 1997, dated 2002)
